Reference: ChEMBL document CHEMBL1201862, “PubChem BioAssay data set” (2004)
Active and inactive are the calls of the source.

Assays:
[1] = system: BJ; assay: cytotoxicity toward BJ-TERT-LT-ST fibroblasts, dose response, cell-based, RAS-independent, luminescence (AID 1935); type: functional; details: Homo sapiens;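 note: BJ fibroblasts immortalized with TERT plus LT and ST oncogenes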
[2] = cytotoxicity toward DRD oncogenic fibroblasts, dose response, cell-based, non-viral oncogenic, luminescence (AID 1934); type: functional; details: Homo sapiens
[3] = system: BJ; assay: cells; type: functional, cell-based; details: Homo sapiens
[4] = cytotoxicity in HEK-293T cells, dose response, cytotoxicity control for TCR NF-kB inhibitor project, luminescence, T-cell screen hits (AID 489026); type: functional, cell-based;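 note: cells exposed to compound about 14 hours before the viability readout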
[5] = system: BJ; assay: cytotoxicity toward BJ-TERT fibroblasts, dose response, cell-based, RAS-independent, luminescence (AID 1933); type: functional; details: Homo sapiens
[6] = biological target: Luciferin 4-monooxygenase (Photinus pyralis, UniProt P08659); assay: firefly luciferase enzyme inhibitors, dose response, biochemical, luminescence (AID 1891)
[7] = Luminescence Cell-Based Dose Confirmation HTS to Identify Inhibitors of Platelet Dense Granule Release. [Related pubchem assays: 1663 (Primary HTS), 1678 (Summary of Project)]; type: functional
[8] = biological target: T1, Heat shock factor protein 1 (Mus musculus, UniProt P38532); assay: inhibition of MG132-induced HSE-luciferase signal, confirmation, cell-based, NIH3T3, luminescence, dose retest (AID 2382); type: functional;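 note: NIH3T3 fibroblasts with HSF1-driven luciferase reporter stressed by proteasome inhibitor MG132; luminescence from HSF1-driven luciferase expression after 8 hours of MG132 stress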
T1 sequence (P38532 whole entry): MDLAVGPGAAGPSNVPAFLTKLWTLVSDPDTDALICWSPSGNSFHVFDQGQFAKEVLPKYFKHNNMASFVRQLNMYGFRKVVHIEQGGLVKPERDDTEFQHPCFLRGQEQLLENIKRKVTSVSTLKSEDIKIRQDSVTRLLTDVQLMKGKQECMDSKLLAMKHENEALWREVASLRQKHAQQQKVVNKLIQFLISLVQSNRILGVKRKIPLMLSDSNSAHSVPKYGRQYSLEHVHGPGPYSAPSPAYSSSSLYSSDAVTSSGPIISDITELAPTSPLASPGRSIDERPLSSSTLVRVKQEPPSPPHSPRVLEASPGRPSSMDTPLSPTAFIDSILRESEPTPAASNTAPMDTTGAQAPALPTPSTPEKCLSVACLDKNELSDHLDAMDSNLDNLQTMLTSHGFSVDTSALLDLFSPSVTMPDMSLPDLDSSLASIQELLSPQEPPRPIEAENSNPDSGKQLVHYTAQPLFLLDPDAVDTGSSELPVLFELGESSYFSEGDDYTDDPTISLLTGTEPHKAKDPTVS

[9] = biological target: T2, High affinity choline transporter 1 (Homo sapiens, UniProt Q9GZV3); assay: CHT inhibitors, dose response, cell-based, 5-point CRC, membrane potential dye (AID 504840); type: functional
T2 sequence (Q9GZV3 whole entry): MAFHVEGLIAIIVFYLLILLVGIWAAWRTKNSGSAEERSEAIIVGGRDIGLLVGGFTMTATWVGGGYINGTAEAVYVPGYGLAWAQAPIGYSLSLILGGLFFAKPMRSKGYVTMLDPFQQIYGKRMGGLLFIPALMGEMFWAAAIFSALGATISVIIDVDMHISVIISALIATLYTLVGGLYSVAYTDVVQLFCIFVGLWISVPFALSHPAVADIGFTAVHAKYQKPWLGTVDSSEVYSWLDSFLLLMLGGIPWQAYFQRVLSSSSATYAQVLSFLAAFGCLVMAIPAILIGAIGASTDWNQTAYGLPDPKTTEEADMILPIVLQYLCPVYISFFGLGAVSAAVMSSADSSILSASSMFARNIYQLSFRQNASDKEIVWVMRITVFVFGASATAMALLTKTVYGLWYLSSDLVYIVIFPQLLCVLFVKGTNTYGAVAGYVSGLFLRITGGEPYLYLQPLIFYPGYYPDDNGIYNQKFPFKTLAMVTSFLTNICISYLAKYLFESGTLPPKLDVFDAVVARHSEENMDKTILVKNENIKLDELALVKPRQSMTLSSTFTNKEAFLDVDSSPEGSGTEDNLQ

[10] = THP-1 cell cytotoxicity, dose response, cytotoxicity control for non-replicating M. tuberculosis project (AID 489025); type: functional
[11] = Vero E6 cell cytotoxicity, dose response, cytotoxicity control for non-replicating M. tuberculosis project, secondary assay (AID 492998); type: functional, VeroE6; details: Vero C1008
[12] = cells; type: functional
[13] = biological target: Glucose-6-phosphate 1-dehydrogenase (Homo sapiens, UniProt P11413); assay: human G6PD enzyme inhibitors, dose response, selectivity assay for P. falciparum G6PD inhibitor project, biochemical, fluorescence (AID 504792); type: functional
[14] = biological target: T3, Protein skinhead-1 (Caenorhabditis elegans, UniProt P34707); type: functional
T3 sequence (P34707 whole entry): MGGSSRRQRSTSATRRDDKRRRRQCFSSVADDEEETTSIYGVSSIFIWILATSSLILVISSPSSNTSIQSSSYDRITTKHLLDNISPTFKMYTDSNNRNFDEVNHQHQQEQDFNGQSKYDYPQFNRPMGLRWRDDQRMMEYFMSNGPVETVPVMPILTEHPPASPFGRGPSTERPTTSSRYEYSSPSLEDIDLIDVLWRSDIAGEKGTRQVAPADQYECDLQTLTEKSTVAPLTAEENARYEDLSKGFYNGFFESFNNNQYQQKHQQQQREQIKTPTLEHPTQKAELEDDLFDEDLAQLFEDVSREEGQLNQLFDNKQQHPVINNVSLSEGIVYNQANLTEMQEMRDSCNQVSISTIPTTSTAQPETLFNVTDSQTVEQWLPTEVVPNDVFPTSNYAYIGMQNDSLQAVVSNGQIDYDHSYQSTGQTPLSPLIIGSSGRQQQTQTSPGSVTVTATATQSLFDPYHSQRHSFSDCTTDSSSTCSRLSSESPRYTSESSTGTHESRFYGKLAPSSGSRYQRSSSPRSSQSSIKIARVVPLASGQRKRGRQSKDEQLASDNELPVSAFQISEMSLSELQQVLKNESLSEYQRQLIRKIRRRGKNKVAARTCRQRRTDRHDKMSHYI

[15] = Shn3 3'UTR reporter inhibitors, dose response, cell-based, Clone20 osteoblasts, firefly luciferase, cherry-picked (AID 624132); type: functional;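 note: firefly luciferase luminescence from reporter carrying the Shn3 3'UTR in osteoblasts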
[16] = biological target: Cytochrome P450 3A4 (Homo sapiens, UniProt P08684);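 note: CYP3A4 tested as one member of a cytochrome P450 panel screen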
[17] = HepG2 cell cytotoxicity, dose response, cytotoxicity control for Shn3 inhibitor project, CellTiter-Glo, cherry-picked (AID 624134); type: functional, cell-based
[18] = biological target: T4, Cytochrome P450 1A2 (Homo sapiens, UniProt P05177);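 note: PubChem cytochrome P450 panel assay, CYP1A2 panel member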
T4 sequence (P05177 whole entry): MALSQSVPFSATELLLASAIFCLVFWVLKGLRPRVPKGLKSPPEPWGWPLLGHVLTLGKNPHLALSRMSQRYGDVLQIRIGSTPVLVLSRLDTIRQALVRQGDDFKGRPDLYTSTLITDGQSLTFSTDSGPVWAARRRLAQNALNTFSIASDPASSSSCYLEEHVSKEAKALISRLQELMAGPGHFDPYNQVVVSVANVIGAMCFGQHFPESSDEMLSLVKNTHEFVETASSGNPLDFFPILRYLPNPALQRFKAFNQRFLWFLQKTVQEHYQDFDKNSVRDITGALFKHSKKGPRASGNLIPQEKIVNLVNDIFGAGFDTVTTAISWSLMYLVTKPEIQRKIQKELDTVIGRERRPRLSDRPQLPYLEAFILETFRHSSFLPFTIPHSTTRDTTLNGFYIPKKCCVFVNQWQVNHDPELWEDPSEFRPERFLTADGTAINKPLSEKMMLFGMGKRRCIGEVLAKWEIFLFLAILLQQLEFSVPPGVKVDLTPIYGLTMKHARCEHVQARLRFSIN

[19] = control 3'UTR Renilla luciferase suppression, dose response, counter-screen for Shn3 inhibitor project, cell-based, Clone20-Shn3RL, cherry-picked (AID 624133); type: functional
[20] = biological target: Cytochrome P450 2C19 (Homo sapiens, UniProt P33261); assay: Cytochrome panel assay with activity outcomes. Panel member name: p450-cyp2c19 Compounds with AC50 equal or less than 10 uM are considered active; type: functional; details: read-out: AC50
[21] = biological target: T5, Alkaline phosphatase, tissue-nonspecific isozyme (Homo sapiens, UniProt P05186); assay: human TNAP enzyme inhibitors, SAR follow-up, biochemical, luminescent, dose response (AID 1056)
T5 sequence (P05186 whole entry): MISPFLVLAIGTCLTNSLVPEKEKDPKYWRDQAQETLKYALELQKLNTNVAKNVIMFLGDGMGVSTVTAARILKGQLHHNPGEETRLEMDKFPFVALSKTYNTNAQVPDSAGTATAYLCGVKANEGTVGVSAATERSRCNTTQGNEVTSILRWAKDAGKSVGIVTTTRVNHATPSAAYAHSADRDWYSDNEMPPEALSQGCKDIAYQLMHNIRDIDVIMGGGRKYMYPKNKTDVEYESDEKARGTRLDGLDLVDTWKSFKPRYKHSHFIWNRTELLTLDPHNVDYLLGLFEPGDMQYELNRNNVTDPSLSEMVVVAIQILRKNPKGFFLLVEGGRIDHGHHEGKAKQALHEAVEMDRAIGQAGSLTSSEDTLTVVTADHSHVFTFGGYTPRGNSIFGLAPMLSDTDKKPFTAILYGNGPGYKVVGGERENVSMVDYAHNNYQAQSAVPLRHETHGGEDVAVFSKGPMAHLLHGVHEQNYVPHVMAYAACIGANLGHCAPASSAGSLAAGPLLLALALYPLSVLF

[22] = biological target: Glyceraldehyde-3-phosphate dehydrogenase (Homo sapiens, UniProt P04406)
Glyceraldehyde-3-phosphate dehydrogenase, sequence (P04406 whole entry): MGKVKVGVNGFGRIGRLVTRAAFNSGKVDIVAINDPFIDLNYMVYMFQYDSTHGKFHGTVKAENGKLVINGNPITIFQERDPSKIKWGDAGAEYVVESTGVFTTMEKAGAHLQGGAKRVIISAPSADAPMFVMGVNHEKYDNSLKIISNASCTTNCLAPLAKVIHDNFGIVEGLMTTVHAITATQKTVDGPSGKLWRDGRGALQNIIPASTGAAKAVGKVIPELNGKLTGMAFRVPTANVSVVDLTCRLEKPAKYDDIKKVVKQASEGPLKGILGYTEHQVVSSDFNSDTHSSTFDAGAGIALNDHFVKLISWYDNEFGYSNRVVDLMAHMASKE

Glucose-6-phosphate 1-dehydrogenase, sequence (P11413 whole entry): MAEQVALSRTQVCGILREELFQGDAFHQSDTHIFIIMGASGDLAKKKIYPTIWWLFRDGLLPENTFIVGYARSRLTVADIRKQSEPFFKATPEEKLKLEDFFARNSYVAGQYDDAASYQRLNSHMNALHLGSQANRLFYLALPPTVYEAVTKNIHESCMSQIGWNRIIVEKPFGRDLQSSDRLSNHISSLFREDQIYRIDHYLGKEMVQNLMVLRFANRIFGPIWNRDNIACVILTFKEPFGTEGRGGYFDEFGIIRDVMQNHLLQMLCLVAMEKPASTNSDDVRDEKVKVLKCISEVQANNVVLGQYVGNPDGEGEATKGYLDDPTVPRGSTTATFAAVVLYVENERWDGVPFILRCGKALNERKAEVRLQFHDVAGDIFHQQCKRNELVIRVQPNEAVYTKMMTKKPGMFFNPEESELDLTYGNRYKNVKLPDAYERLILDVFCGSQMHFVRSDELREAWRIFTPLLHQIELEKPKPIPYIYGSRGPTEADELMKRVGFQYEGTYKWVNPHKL
Cytochrome P450 3A4, sequence (P08684 whole entry): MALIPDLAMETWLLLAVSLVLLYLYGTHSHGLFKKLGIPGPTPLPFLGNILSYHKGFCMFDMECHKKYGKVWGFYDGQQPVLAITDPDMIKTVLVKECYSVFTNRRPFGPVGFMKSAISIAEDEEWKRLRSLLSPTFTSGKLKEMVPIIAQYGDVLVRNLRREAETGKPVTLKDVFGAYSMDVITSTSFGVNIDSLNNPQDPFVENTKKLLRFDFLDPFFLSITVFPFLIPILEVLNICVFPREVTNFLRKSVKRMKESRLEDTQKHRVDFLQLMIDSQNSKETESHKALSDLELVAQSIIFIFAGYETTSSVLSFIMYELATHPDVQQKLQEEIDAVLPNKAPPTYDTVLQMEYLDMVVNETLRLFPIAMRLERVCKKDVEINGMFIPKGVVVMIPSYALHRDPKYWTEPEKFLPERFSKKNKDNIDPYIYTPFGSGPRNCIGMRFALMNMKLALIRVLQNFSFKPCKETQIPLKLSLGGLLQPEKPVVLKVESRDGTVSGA
Cytochrome P450 2C19, sequence (P33261 whole entry): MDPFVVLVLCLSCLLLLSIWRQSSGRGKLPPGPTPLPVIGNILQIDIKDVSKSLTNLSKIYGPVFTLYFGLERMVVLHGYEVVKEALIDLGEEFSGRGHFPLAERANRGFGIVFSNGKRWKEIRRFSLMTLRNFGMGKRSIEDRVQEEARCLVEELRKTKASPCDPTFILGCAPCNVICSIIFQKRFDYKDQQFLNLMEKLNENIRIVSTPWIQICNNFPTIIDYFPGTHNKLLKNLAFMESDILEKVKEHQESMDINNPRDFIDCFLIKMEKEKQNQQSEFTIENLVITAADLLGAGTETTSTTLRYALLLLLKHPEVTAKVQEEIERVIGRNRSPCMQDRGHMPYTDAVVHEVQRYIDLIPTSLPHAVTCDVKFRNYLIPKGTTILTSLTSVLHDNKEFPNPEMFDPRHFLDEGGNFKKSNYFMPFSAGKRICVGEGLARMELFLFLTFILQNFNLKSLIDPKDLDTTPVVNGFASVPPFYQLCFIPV
Luciferin 4-monooxygenase, sequence (P08659 whole entry): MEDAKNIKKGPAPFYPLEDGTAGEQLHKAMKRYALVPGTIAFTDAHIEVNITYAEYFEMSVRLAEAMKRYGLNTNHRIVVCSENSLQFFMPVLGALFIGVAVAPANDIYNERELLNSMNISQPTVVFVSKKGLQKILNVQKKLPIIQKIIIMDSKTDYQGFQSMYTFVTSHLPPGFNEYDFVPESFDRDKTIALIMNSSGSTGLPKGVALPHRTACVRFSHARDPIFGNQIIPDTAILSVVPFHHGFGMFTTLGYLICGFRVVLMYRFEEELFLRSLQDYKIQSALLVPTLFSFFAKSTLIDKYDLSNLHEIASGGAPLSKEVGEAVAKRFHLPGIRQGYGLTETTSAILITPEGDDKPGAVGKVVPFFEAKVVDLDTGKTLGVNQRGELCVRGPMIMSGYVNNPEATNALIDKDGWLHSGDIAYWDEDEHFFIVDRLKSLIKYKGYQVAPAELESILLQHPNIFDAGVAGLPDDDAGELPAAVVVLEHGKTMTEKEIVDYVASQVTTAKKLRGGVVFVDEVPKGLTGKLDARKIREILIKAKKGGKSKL

Cc1ccc(-c2cc3c(N=O)c4ccccc4c-3[nH]n2)cc1
EC50 [1]: 13.1 µM (active)
EC50 [2]: 6.32 µM (active)
EC50 [3]: 6.73 µM (active)
IC50 [4]: > 80 µM (inactive)
EC50 [5]: 6.45 µM (active)
EC50 [6]: 0.207 µM (active)
EC50 [7]: 3.05 µM (active)
EC50 [8]: 4.95 µM (active)

COc1ccccc1CN1C(=O)[C@@H]2C(CCC(N)=O)NC3(C(=O)Nc4c3ccc(Cl)c4C)[C@@H]2C1=O (some centres not stated)
IC50 [9]: 16.6 µM (active)

Cc1cc(NC(=O)c2ccccc2F)n(-c2nc3ccccc3[nH]2)n1
CC50 [10]: > 40 µM (active)
CC50 [11]: 17.6 µM (active)
IC50 [12]: > 50 µM (active)

COc1ccc(CCn2c(NN=C3CCCCC3)nc3c2c(=O)[nH]c(=O)n3C)cc1
IC50 [13]: 11.6 µM (active)

CCCCc1ccc(NC(=O)CSc2nc(=O)n(CCCN3CCOCC3)c3c2CCC3)cc1
IC50 [9]: 13.8 µM (active)

Cc1c(C(=O)Nc2cccc(C(F)(F)F)c2)oc2ccc(S(=O)(=O)N3CCOCC3)cc12
IC50 [14]: > 100 µM (inactive)
AC50 [15]: 3.8 µM (active)
AC50 [16]: inconclusive
AC50 [17]: > 70 µM (inactive)
AC50 [18]: 10 µM (inconclusive)
AC50 [19]: > 70 µM (inactive)

CCOc1ccc(CC(=O)C2C(=O)CCCC2=O)cc1OCC
AC50 [16]: inconclusive
AC50 [20]: 39.8 µM (inconclusive)

O=C1c2ccccc2C(=O)N1c1nc(-c2cccnc2)n[nH]1
IC50 [21]: > 100 µM (inactive)
IC50 [22]: > 100 µM (not active)

Cc1c(CCO)c(O)oc2nnc(-c3ccccc3)c1-2
IC50 [21]: > 100 µM (inactive)
IC50 [22]: > 100 µM (not active)

O=C(N/N=C/c1cccc([N+](=O)[O-])c1)C(=O)N1CCCCCC1
IC50 [13]: > 80 µM (inactive)
